# Earlier results in patent publication US20130184245A1, “ENDOMETRIOSIS TREATMENT” (DRUGTECH CORPORATION, priority 2007, published 2013).
# Where two headings read alike, the source gives them in different places.
# Legend:
# women with endometriosis [1] = system: women with endometriosis
# [2] = vaginal suppository 100 mg/day versus per os 400 mg/day
# [3] = intravaginal gel, 100 to 200 mg/day
# [4] = system: women with endometriosis and chronic pelvic pain symptoms; settings: intravaginal danazol therapy, 22 women
# endometriosis = settings: daily administration of 5 mg danazol in suppository form
# pelvic endometriosis [5] = settings: vaginal ring containing 1000 mg danazol
# women with endometriosis [6] = settings: intravaginal gel, 100 to 200 mg/day
# [7] = not given; remark: listed apart in the source
# pelvic endometriosis [8] = system: pelvic endometriosis
# [9] = intravaginal danazol therapy
# [10] = system: deeply infiltrating endometriosis
Structure (SMILES),"side effects such as seborrhea, acne and weight gain, versus oral (women with endometriosis [1]; vaginal administration)","effectiveness in reducing dyspareunia and dysmenorrhea versus oral gestrinone therapy (women with endometriosis [1]; vaginal route, women with endometriosis)","danazol concentrations in the ovary and uterus, vaginal versus oral administration [2]","serum danazol concentration, vaginal versus oral administration [2]",plasma levels of danazol [3],serum danazol levels (danazol 400 mg/day per os),serum danazol levels (topical danazol administration (vaginal ring 1000 mg)),management of chronic pelvic pain secondary to pelvic endometriosis [4],"side effect profile, systemic androgen-like effects [4]",effect on dyspareunia and dysmenorrhea (endometriosis),efficacy in treating pelvic endometriosis (pelvic endometriosis [5]),effect on chronic pelvic pain (women with endometriosis [6]),systemic androgenic side effects (women with endometriosis [6]),serum danazol concentrations ([7]; oral therapy with danazol at 400 mg/day),serum danazol concentrations ([7]; vaginal danazol therapy (ring 1500 mg)),"women in whom conception was enabled while the ring was in place (pelvic endometriosis [8]; of 35 infertile women, vaginal ring 2000 to 3500 mg danazol)","effect on dysmenorrhea and pelvic endometriosis (pelvic endometriosis [8]; vaginal ring containing 2000 to 3500 mg danazol, 35 infertile women)",peripheral levels of danazol [9],"women in whom ovulation and conception occurred ([10]; out of 31 infertile women with deeply infiltrating endometriosis, vaginal ring 1500 mg)",time to elimination of dysmenorrhea ([10]; vaginal ring containing 1500 mg danazol) [months]
"C#C[C@]1(O)CC[C@H]2[C@@H]3CCC4=CC(=O)CCC4=C3C=C[C@@]21CC [gestrinone, ethylnorgestrienone]",significantly lower,equally effective,,,,,,,,,,,,,,,,,,
"C#C[C@]1(O)CC[C@H]2[C@@H]3CCC4=Cc5oncc5C[C@]4(C)[C@H]3CC[C@@]21C [danazol, 17α-ethynyl-17β-hydroxy-4-androsteno[2,3-d]-isoxazole]",,,comparable,much lower,low to undetectable,exceeded 100 ng/ml,undetectable,effective,paucity of systemic androgen-like effects,remission,very effective,significantly reduced,lack of systemic androgenic side effects,high,undetectable,13,reduced dysmenorrhea and pelvic endometriosis,undetectable,17,≤ 3
